Results reported in patent US9475789B2, “Use of polyenylpyrrole derivatives for treating inflammation” (WELLHEAD BIOLOGICAL TECHNOLOGY CORP., priority 2014, dated 2016).
“Also recorded” adds a separate entry of the source.

Columns and labels:
TNF-α [1] = test: TNF-α ELISA, LPS-activated JAWSII dendritic cells; type: cell-based, murine; conditions: LPS 1 μg/ml 24 h
Description: (§1) (A) J774A.1 macrophages (4×10^5/ml), (B) peritoneal macrophages (4×10^5/ml), and (C) JAWSII dendritic cells (4×10^5/ml) were incubated with compound 1h or DMSO for 30 min followed by stimulating with LPS (1 μg/ml) for 24 h, then IL-6 and TNF-α concentration in culture medium were assayed by ELISA. The data are expressed as the mean±SD for three separate experiments. *, **, and *** indicate a significant difference at the level of p<0.05, p<0.01, p<0.001 respectively compared to LPS group.
(§2) The effects of tested samples on IL-1β, TNF-α and IL-6 production were measured by ELISA according to the manufacturer's instruction. In brief, 50 μl of biotinylated antibody reagent and 50 μl of supernatant were added to an anti-mouse IL-1β, TNF-α and IL-6 precoated stripwell plate, and incubated at room temperature for 2 h. After washing the plate three times with washing buffer, 100 μl of diluted streptavidin-HRP concentrate was added to each well and incubated at room temperature for 30 min. The washing process was repeated; then 100 μl of a premixed tetramethylbenzidine substrate solution was added to each well and developed at room temperature in the dark for 30 min. Following the addition of 100 μl of stop solution to each well to stop the reaction, the absorbance of the plate was measured by a microplate reader at 450 nm wavelength.

IL-6 = IL-6 ELISA, LPS-activated J774A.1 macrophages; type: cell-based, murine; conditions: J774A.1 cells, LPS 1 μg/ml 24 h
Description: as §1, §2

IKK-α and IκB-α [2] = test: Western blot of IKK-α and IκB-α, LPS-activated J774A.1 macrophages; type: cell-based, murine; conditions: LPS-activated J774A.1, LPS 20 min
Description: (§3) (A) RAW 264.7 macrophages (5×10^5/ml) or (B) J774A.1 macrophages (5×10^5/ml) were incubated with compound 1h or DMSO for 30 min followed by LPS (1 μg/ml) stimulating for 20 min, then the phosphorylation levels of IKK-α and IκB-α and total IκB-α protein level were analyzed by Western blot. (C) RAW 264.7 macrophages (5×10^5/ml) or (D) J774A.1 macrophages (5×10^5/ml) were incubated with compound 1h (10-40 μM) or DMSO for 30 min followed by LPS (1 μg/ml) stimulating for 20 min, then the nuclear translocation of NF-κB were analyzed by ELISA. (E) RAW-Blue™ cells (5×10^5/ml) were incubated with compound 1h (2.5-40 μM) or DMSO for 30 min followed by LPS (1 μg/ml) stimulating for 24 h, then the SEAP activity was measured by QUANTI-Blue™. […] In (C), (D), and (E), the data are expressed as the mean±SD for three separate experiments. *, **, and *** indicate a significant difference at the level of p<0.05, p<0.01, and p<0.001 respectively compared to LPS group.
(§4) Whole cell lysates were separated by SDS-PAGE and electrotransferred to a PVDF membrane. The membranes were incubated in blocking solution—5% nonfat milk in phosphate buffered saline with 0.1% Tween 20—at room temperature for 1 h. Each membrane was incubated with a specific primary antibody at room temperature for 2 h. After washing three times in PBS with 0.1% Tween 20, the membrane was incubated with an HRP-conjugated secondary antibody directed against the primary antibody. The membrane was developed by an enhanced chemiluminescence Western blot detection system.

NF-κB = NF-κB reporter assay (SEAP), RAW-Blue cells; type: cell-based, murine; conditions: compound 1h 2.5-40 μM, LPS 24 h
Description: as §3
RAW-Blue™ cells, RAW 264.7 macrophages which stably express a secreted embryonic alkaline phosphatase (SEAP) gene inducible by NF-κB, were seeded in 60 mm dishes at a density of 5×10^5 cells/ml, and grown overnight in a 5% CO2 incubator at 37° C. […] Results of the SEAP activity were assessed by measuring the optical density at 655 nm using an ELISA reader.

IL-1β = IL-1β ELISA, LPS+ATP-activated peritoneal macrophages; type: cell-based, C57BL/6 mice; conditions: primary peritoneal macrophages; compound before LPS and ATP
Description: (A) J774A.1 macrophages (1×10^6/ml) and (B) peritoneal macrophages (1×10^5/ml) were incubated with compound 1h for 30 min followed by LPS (1 μg/ml) stimulating for 5.5 h, then the cells were stimulated with ATP (5 mM) for an additional 30 min. The IL-1β in the culture medium was measured by ELISA and the expression of active caspase-1 (p10) was measured by Western blot. In (C) and (D), J774A.1 macrophages (1×10^6/ml) were incubated with LPS (1 μg/ml) for 5.5 h, then cells were incubated with compound 1h for 30 min followed by stimulating with ATP (5 mM) for an additional 30 min. The IL-1β and IL-6 in the culture medium were measured by ELISA and the expression of active caspase-1 (p10) was measured by Western blot. In (E), J774A.1 macrophages (1×10^6/ml) were incubated with compound 1h for 30 min followed by LPS (1 μg/ml) stimulating for 6 h. The expression of NLRP3 and proIL-1β were measured by Western blot.
The effects of tested samples on IL-1β, TNF-α and IL-6 production were measured by ELISA according to the manufacturer's instruction. […] Following the addition of 100 μl of stop solution to each well to stop the reaction, the absorbance of the plate was measured by a microplate reader at 450 nm wavelength.

iNOS = test: Western blot of iNOS protein in LPS-activated RAW 264.7 macrophages; type: cell-based, murine; conditions: LPS-activated RAW 264.7, compared with vehicle
Description: In (A) and (C), cells (5×10^5/ml) were incubated with polyenylpyrrole derivatives or DMSO (vehicle) for 30 min followed by stimulating with LPS (1 μg/ml) for 24 h, then NO (A), IL-6 and TNF-α (C) concentration in culture medium were assayed by Griess reaction and ELISA, respectively. In (B), cells (5×10^5/ml) were pretreated with polyenylpyrrole derivatives or DMSO for 30 min followed by stimulating with LPS (1 μg/ml) for 24 h, then the protein expression of iNOS and COX-2 were assayed by Western blot.
as §4

TNF-α [3] = test: TNF-α ELISA, LPS-activated peritoneal macrophages; type: cell-based, C57BL/6 mice; conditions: LPS 1 μg/ml 24 h
Description: as §1, §2

IKK-α and IκB-α [4] = test: Western blot of IKK-α and IκB-α, LPS-activated RAW 264.7 macrophages; type: cell-based, murine; conditions: LPS-activated RAW 264.7, LPS 20 min
Description: as §3, §4

Structure (SMILES): O=c1cc(O)cc(/C=C/C=C/C=C/C=C/c2[nH]ccc2Cl)o1 [Compound 1h]
- secretion of TNF-α (TNF-α [1]): also reduced
- secretion of IL-6 (IL-6): reduced
- IκB-α degradation (IKK-α and IκB-α [2]): partially rescued
- phosphorylation level of IKK-α (IKK-α and IκB-α [2]): inhibited
- phosphorylation level of IκB-α (IKK-α and IκB-α [2]): inhibited
- NF-κB transcriptional activity (NF-κB): reduced
- IL-1β inhibition activity (IL-1β): confirmed
- expression of iNOS protein (iNOS): decreased production; also recorded: reduced the expression of iNOS protein
- secretion of TNF-α (TNF-α [3]): reduced
- IκB-α degradation (IKK-α and IκB-α [4]): partially rescued
- phosphorylation level of IKK-α (IKK-α and IκB-α [4]): inhibited
- phosphorylation level of IκB-α (IKK-α and IκB-α [4]): inhibited
